The C3SDB collision cross section collection

Conditions: [M+H]+; instrument: TW; Major Mix IMS/Tof Calibration Kit (Waters)

SMILES	collision cross section (N2) [Å²]
COc1cc(CCN)c(OC)cc1Br [2C-B]	155.6
COc1cc(CCNCc2ccccc2OC)c(OC)cc1Cl [25C-NBOMe]	177.6
CCCC(=O)Nc1ccc(OCC(O)CNC(C)C)c(C(C)=O)c1 (stereo unspecified) [Acebutolol]	190.2
CC(=O)c1ccc2c(c1)N(CCCN(C)C)c1ccccc1S2 [Acepromazine]	176.6
Cc1nnc2n1-c1ccc(Cl)cc1C(c1ccccc1)=NC2 [Alprazolam]	171.5
CCN(CC)C(C)C(=O)c1ccccc1 (stereo unspecified) [Amfepramone]	148
CCN1CCCC1CNC(=O)c1cc(S(=O)(=O)CC)c(N)cc1OC (stereo unspecified) [Amisulpride]	193.1
CC(C)NCC(O)COc1ccc(CC(N)=O)cc1 (stereo unspecified) [Atenolol]	159.5
CN1[C@@H]2CC[C@H]1C[C@@H](OC(=O)C(CO)c1ccccc1)C2 (stereo partly specified) [Atropine]	171.5
CCOC(=O)c1ccc(N)cc1 [Benzocaine]	148.2
CN1[C@H]2CC[C@@H]1[C@@H](C(=O)O)[C@@H](OC(=O)c1ccccc1)C2 [Benzoylecgonine]	167.3
CCCCN1CCCCC1C(=O)Nc1c(C)cccc1C (stereo unspecified) [Bupivacaine]	173.1
CC(NC(C)(C)C)C(=O)c1cccc(Cl)c1 (stereo unspecified) [Bupropion]	157.8
O=C1CC2(CCCC2)CC(=O)N1CCCCN1CCN(c2ncccn2)CC1 [Buspirone]	199.3
Cn1c(=O)c2c(ncn2C)n(C)c1=O [Caffeine]	138.3
C[C@H](CS)C(=O)N1CCC[C@H]1C(=O)O [Captopril]	142.5
NC(=O)N1c2ccccc2C=Cc2ccccc21 [Carbamazepine]	150.3
COc1ccccc1OCCNCC(O)COc1cccc2[nH]c3ccccc3c12 (stereo unspecified) [Carvedilol]	190
Cc1ccc(-c2cc(C(F)(F)F)nn2-c2ccc(S(N)(=O)=O)cc2)cc1 [Celecoxib]	186.4
OCCN1CCN(C(c2ccccc2)c2ccc(Cl)cc2)CC1 (stereo unspecified) [Cetirizine-M O-desalkyl]	186.2
CNC1=Nc2ccc(Cl)cc2C(c2ccccc2)=[N+]([O-])C1 [Chlordiazepoxide]	170.4
CN(C)CCC(c1ccc(Cl)cc1)c1ccccn1 (stereo unspecified) [Chlorphenamine]	164.5
CNCCCN1c2ccccc2Sc2ccc(Cl)cc21 [Chlorpromazine-M norl]	168.7
CNCC/C=C1/c2ccccc2Sc2ccc(Cl)cc21 [Chlorprothixene-M N-desmethyl]	165.9
CN/C(=N\C#N)NCCSCc1nc[nH]c1C [Cimetidine]	156.5
CN(C)CCCC1(c2ccc(F)cc2)OCc2cc(C#N)ccc21 (stereo unspecified) [Citalopram]	180.1

SMILES	collision cross section (N2) [Å²]
CC(C)(C)NCC(O)c1cc(Cl)c(N)c(Cl)c1 (stereo unspecified) [Clenbuterol]	165.6
O=C1CN=C(c2ccccc2Cl)c2cc([N+](=O)[O-])ccc2N1 [Clonazepam]	168.2
CN1CCN(C2=Nc3cc(Cl)ccc3Nc3ccccc32)CC1 [Clozapine]	178.8
CCOC(=O)[C@H]1[C@@H](OC(=O)c2ccccc2)C[C@@H]2CC[C@H]1N2C [Cocaine-M Cocaethylene]	173.5
CN1CCN(C(c2ccccc2)c2ccccc2)CC1 [Cyclizine]	166.7
CN(C)CCC=C1c2ccccc2C=Cc2ccccc21 [Cyclobenzaprine]	164.7
COc1ccc2c(c1)[C@]13CCCC[C@@H]1[C@H](C2)N(C)CC3 [Dextromethorphan]	166.3
CCC(=O)O[C@](Cc1ccccc1)(c1ccccc1)[C@H](C)CN(C)C [Dextropropoxyphene]	180.7
O=C(O)Cc1ccccc1Nc1c(Cl)cccc1Cl [Diclofenac]	157.7
CN1CC[C@]23c4c5ccc(O)c4O[C@H]2[C@@H](O)CC[C@H]3[C@H]1C5 [Dihydromorphine]	163.6
COc1ccc([C@@H]2Sc3ccccc3N(CCN(C)C)C(=O)[C@@H]2O)cc1 [Diltiazem-M deacetyl]	186.3
CNC(=O)CSP(=S)(OC)OC [Dimethoate]	139.9
OCCN(CCO)c1nc(N2CCCCC2)c2nc(N(CCO)CCO)nc(N3CCCCC3)c2n1 [Dipyridamole]	227.5
CC(CN1CCN(CCOCCO)CC1)CN1c2ccccc2Sc2ccccc21 (stereo unspecified) [Dixyrazine]	201
COc1cc2c(cc1OC)C(=O)C(CC1CCN(Cc3ccccc3)CC1)C2 (stereo unspecified) [Donepezil]	198.1
CN(C)CCC=C1c2ccccc2CSc2ccccc21 [Dosulepin]	167.3
COc1cc2nc(N3CCN(C(=O)C4COc5ccccc5O4)CC3)nc(N)c2cc1OC (stereo unspecified) [Doxazosin]	202.9
CN(C)CCOC(C)(c1ccccc1)c1ccccn1 (stereo unspecified) [Doxylamine]	161.9
COC(=O)[C@@H]1CC2=CC(=O)CC[C@]2(C)[C@@]23O[C@@H]2C[C@@]2(C)[C@@H](CC[C@@]24CCC(=O)O4)[C@H]13 [Eplerenone]	197.6
CCNC(C)C(=O)c1ccccc1 (stereo unspecified) [Ethcathinone]	139.2
Fc1ccc(C(c2ccc(F)cc2)N2CCN(C/C=C/c3ccccc3)CC2)cc1 [Flunarizine]	211.5
CN1C(=O)CN=C(c2ccccc2F)c2cc(N)ccc21 [Flunitrazepam-M 7-amino]	163.1
CN1C(=O)CN=C(c2ccccc2F)c2cc([N+](=O)[O-])ccc21 [Flunitrazepam]	168.6
FC(F)(F)c1ccc2c(c1)C(=CCCN1CCNCC1)c1ccccc1S2 [Flupentixol-M N-desalkyl]	186
O=S1c2ccccc2/C(=C\CCN2CCN(CCO)CC2)c2cc(C(F)(F)F)ccc21 (stereo unspecified) [Flupentixol-M sulphoxide]	196.8
OCCN1CCN(CC/C=C2\c3ccccc3Sc3ccc(C(F)(F)F)cc32)CC1 [Flupentixol]	199.4

Conditions: [M+H]+; instrument: DT; single field, calibrated with Agilent tune mix (Agilent)

SMILES	collision cross section (N2) [Å²]
CCCCCCCCCCCCCCCCCCCC(=O)OC[C@@H](O)COP(=O)([O-])OCC[N+](C)(C)C [LPC(20:0)]	243.9
CCCCCC/C=C\CCCCCCCC/C=C\OC[C@H](COP(=O)([O-])OCC[N+](C)(C)C)OC(=O)CCCCCCC/C=C\CCCCCC [PC(p34:2)]	283.3
CCCCCC/C=C\CCCCCCCC(=O)OC[C@H](COP(=O)(O)O[C@H]1C(O)C(O)C(O)[C@@H](O)C1O)OC(=O)CCCCCCCCC/C=C\CCCCCCCCCC (stereo partly specified) [PI(38:2)]	305.1
CCCCCCCCCCCCCCC[C@@H](O)[C@H](COP(=O)([O-])OCC[N+](C)(C)C)NC(=O)CCCCCCCCCCCCC [SM(32:0)]	278.5

Same assay, conditions: [M+NH4]+; instrument: DT; single field, calibrated with Agilent tune mix (Agilent)

SMILES	collision cross section (N2) [Å²]
CCCCCC/C=C\CCCCCCCC(=O)OC[C@H](COP(=O)(O)O[C@H]1C(O)C(O)C(O)[C@@H](O)C1O)OC(=O)CCCCCCCCC/C=C\CCCCCCCCCC (stereo partly specified) [PI(38:2)]	306
CCCCC/C=C\CCCCCCCC(=O)OC[C@H](COC(=O)CCCCCCCCCCCCCCCCCC)OC(=O)CCCCCCCCCCCCCCCCCC [TG(53:1)]	325
CCCCC/C=C\C/C=C\C/C=C\C/C=C\CCCCCC(=O)OC[C@@H](COC(=O)CCCCCCCCCCCC)OC(=O)CCCCCCC/C=C\CCCCCCCCC [TG(54:5)]	322.1
CCCCCCCCCC/C=C\CCCCCCCCCC(=O)OC[C@@H](COC(=O)CCCCCCCCCCC)OC(=O)CCCCCCCCCCCCCCCCCCCCC [TG(56:1)]	333.6
CC/C=C\C/C=C\C/C=C\C/C=C\C/C=C\CCCCCC(=O)OC[C@@H](COC(=O)CCCCCCC/C=C\C/C=C\CCCCC)OC(=O)CCCCCC/C=C\C/C=C\C/C=C\CCCCC [TG(60:10)]	334.1
CCCCCCCC/C=C\CCCCCCCC(=O)OC[C@H](COC(=O)CCCCCCCCC/C=C\CCCCCCCCCC)OC(=O)CCCCCCCCC/C=C\CCCCCCCCCC [TG(62:3)]	346.8
CCCCC/C=C\C/C=C\C/C=C\C/C=C\CCCCCC(=O)OC[C@@H](COC(=O)CCCCCCC/C=C\CCCCCCCC)OC(=O)CCCCCCCCCCC/C=C\C/C=C\CCCCC [TG(62:7)]	343.6
CC/C=C\C/C=C\C/C=C\C/C=C\C/C=C\CCCCCC(=O)OC[C@@H](COC(=O)CCCC/C=C\C/C=C\C/C=C\C/C=C\CC)OC(=O)CCCCC/C=C\C/C=C\C/C=C\C/C=C\C/C=C\CC [TG(62:14)]	332.7

Same assay, conditions: [M+Na]+; instrument: DT; single field, calibrated with Agilent tune mix (Agilent)

SMILES	collision cross section (N2) [Å²]
CCCCCC/C=C\CCCCCCCC(=O)OC[C@H](COP(=O)(O)O[C@H]1C(O)C(O)C(O)[C@@H](O)C1O)OC(=O)CCCCCCCCC/C=C\CCCCCCCCCC (stereo partly specified) [PI(38:2)]	303.2

Same assay, conditions: [M-H]-; instrument: DT; single field, calibrated with Agilent tune mix (Agilent)

SMILES	collision cross section (N2) [Å²]
CCCCC/C=C\C/C=C\CCCCCCCC(=O)O[C@H](COC(=O)CCCCCCCCC/C=C\CCCCCCCC)COP(=O)(O)OC[C@@H](O)CO [PG(38:3)]	279.2
CCCCCC/C=C\CCCCCCCC(=O)OC[C@H](COP(=O)(O)O[C@H]1C(O)C(O)C(O)[C@@H](O)C1O)OC(=O)CCCCCCCCC/C=C\CCCCCCCCCC (stereo partly specified) [PI(38:2)]	295.2
CCCCC/C=C\C/C=C\C/C=C\CCCCCCC(=O)O[C@H](COC(=O)CCCCCCCCCCCCCCCCCC)COP(=O)(O)O[C@H]1C(O)C(O)C(O)[C@@H](O)C1O (stereo partly specified) [PI(39:3)]	296.5
CCCCC/C=C\C/C=C\C/C=C\C/C=C\CCCCCC(=O)O[C@H](COC(=O)CCCCCCCCCCCCCCCC)COP(=O)(O)O[C@H]1C(O)C(O)C(O)[C@@H](O)C1O (stereo partly specified) [PI(39:4)]	295

Conditions: [M+H]+; instrument: DT; stepped-field

SMILES	collision cross section (N2) [Å²]
CCCCCCCCCCCCCCCCCCCC(=O)OC[C@@H](O)COP(=O)([O-])OCC[N+](C)(C)C [LPC(20:0)]	248.6

Same assay, conditions: [M+Na]+; instrument: DT; stepped-field

SMILES	collision cross section (N2) [Å²]
CCCCCCCCCCCCCCCCCCCC(=O)OC[C@@H](O)COP(=O)([O-])OCC[N+](C)(C)C [LPC(20:0)]	251.13
